Legend:
[1] = tested on: morningglory; assay: Test B pre/postemergence morningglory; type: in vivo, Ipomoea hederacea
How it was run: (§1)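 Herbicidal effect was estimated by eye on a ten-point control scale after plants spent twelve to sixteen days in a greenhouse following soil or foliar treatment. Foliar sprays targeted plants at one to four leaves; all doses were formulated in a non-phytotoxic solvent with surfactant.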

[2] = tested on: pigweed; assay: Test B pre/postemergence pigweed; type: in vivo, Amaranthus retroflexus
How it was run: as §1

[3] = tested on: wild oat; assay: Test B pre/postemergence wild oat; type: in vivo, Avena fatua
How it was run: as §1

[4] = tested on: winter wheat; assay: Test E winter wheat; type: in vivo, Triticum aestivum; settings: Postemergence
How it was run: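 Postemergence: 60:40 sandy loam/greenhouse potting mix, 1- to 4-leaf stage. Formulation: solvent plus surfactant. Assessment: visual comparison with untreated controls at ~21–28 days.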

[5] = tested on: blackgrass; assay: Test E blackgrass; type: in vivo, Alopecurus myosuroides; settings: Preemergence; for Blackgrass plant response rating (0 to 100 scale): Rate 250 g/ha
[6] = tested on: green foxtail; assay: Test E green foxtail; type: in vivo, Setaria viridis; settings: Preemergence; for Green foxtail plant response rating (0 to 100 scale): Rate 250 g/ha
[7] = tested on: Italian ryegrass; assay: Test E Italian ryegrass; type: in vivo, Lolium multiflorum; settings: Preemergence; for I. Ryegrass plant response rating (0 to 100 scale): Rate 250 g/ha
[8] = tested on: winter wheat; assay: Test E winter wheat; type: in vivo, Triticum aestivum; settings: Preemergence; for Wheat (winter) plant response rating (0 to 100 scale): Rate 250 g/ha
[9] = tested on: wild oat; assay: Test E wild oat; type: in vivo, Avena fatua; settings: Preemergence; for Wild oat plant response rating (0 to 100 scale): Rate 250 g/ha
[10] = tested on: winter barley; assay: Test E winter barley; type: in vivo, Hordeum vulgare; settings: Preemergence; for Barley (winter) plant response rating (0 to 100 scale): Rate 250 g/ha
[11] = Preemergence, Rate 62 g/ha, scale of 0 to 10 where 0 is no effect and 10 is complete control
[12] = Preemergence, Rate 250 g/ha, scale of 0 to 10 where 0 is no effect and 10 is complete control
[13] = Preemergence, Rate 500 g/ha, scale of 0 to 10 where 0 is no effect and 10 is complete control
[14] = Rate 125 g/ha, Postemergence, scale of 0 to 10 where 0 is no effect and 10 is complete control
[15] = Rate 125 g/ha, Preemergence, scale of 0 to 10 where 0 is no effect and 10 is complete control
[16] = Rate 250 g/ha, Postemergence, scale of 0 to 10 where 0 is no effect and 10 is complete control
[17] = Rate 500 g/ha, Postemergence, scale 0 to 10, 0 no effect, 10 complete control
[18] = Rate 1000 g/ha, 0 to 100 scale where 0 is no effect and 100 is complete control
[19] = Rate 500 g/ha, 0 to 100 scale, 0 is no effect, 100 is complete control
[20] = Rate 500 g/ha, 0 to 100 scale where 0 is no effect and 100 is complete control
[21] = Rate 1000 g/ha, 0 to 100 scale, 0 no effect, 100 complete control
[22] = Postemergence, Rate 125 g/ha, scale of 0 to 10 where 0 is no effect and 10 is complete control
[23] = Preemergence, Rate 125 g/ha, 0 is no effect, 10 is complete control
[24] = Preemergence, Rate 250 g/ha, scale 0 to 10, 0 is no effect, 10 is complete control
[25] = Preemergence, Rate 500 g/ha, scale 0 to 10 (0 no effect, 10 complete control)
[26] = Rate 62 g/ha, Postemergence, scale of 0 to 10 where 0 is no effect and 10 is complete control
[27] = Rate 250 g/ha, Postemergence, scale 0 to 10, 0 is no effect, 10 is complete control
[28] = Rate 500 g/ha, Postemergence, scale 0 to 10

For `Cc1cccc(C)c1-n1c(=O)on(C(=O)N(C(C)C)C2C=CCCC2)c1=O` (centres unmarked) [Compound 273], the “Morningglory plant response rating” value [1, 11] was 0, the “Morningglory plant response rating” value [1, 12] was 0 and the “Plant response rating, Morningglory” value [1, 13] was 0. For the same compound, the “Morningglory plant response rating” value [1, 14] was 0, the “Morningglory plant response rating” value [1, 15] was 0 and the “Plant response rating, Morningglory” value [1, 16] was 2. For the same compound, the “Morningglory plant response rating” value [1, 17] was 3, the “Redroot pigweed plant response rating” value [2, 11] was 0 and the “Redroot pigweed plant response rating” value [2, 12] was 0. The “Plant response rating, Redroot pigweed” value [2, 13] was 0, the “Redroot pigweed plant response rating” value [2, 14] was 0 and the “Redroot pigweed plant response rating” value [2, 15] was 0. For the same compound, the “Plant response rating, Redroot pigweed” value [2, 16] was 2, the “Redroot pigweed plant response rating” value [2, 17] was 4 and the “Wild oats plant response rating” value [3, 11] was 0. For the same compound, the “Wild oats plant response rating” value [3, 12] was 0, the “Plant response rating, Wild oats” value [3, 13] was 3 and the “Wild oats plant response rating” value [3, 14] was 0. For the same compound, the “Plant response rating, Wild oats” value [3, 16] was 0, the “Wild oats plant response rating” value [3, 17] was 0 and the “Plant response rating, Wheat (winter)” value [4, 18] was 60. The “Wheat (winter) plant response rating” value ([4]; Rate 250 g/ha, 0 to 100 scale where 0 is no effect and 100 is complete control) was 30, the “Plant response rating, Wheat (winter)” value [4, 19] was 50 and the “Blackgrass plant response rating (0 to 100 scale)” value [5] was 55. The “Plant response rating, Blackgrass” value [5, 20] was 80, the “Plant response rating, Blackgrass” value [5, 21] was 100 and the “Green foxtail plant response rating (0 to 100 scale)” value [6] was 20. For the same compound, the “Plant response rating, Green foxtail” value [6, 20] was 30, the “Plant response rating, Green foxtail” value [6, 21] was 60 and the “I. Ryegrass plant response rating (0 to 100 scale)” value [7] was 30. For the same compound, the “Plant response rating, I. Ryegrass” value [7, 20] was 55, the “Plant response rating, I. Ryegrass” value [7, 21] was 60 and the “Wheat (winter) plant response rating (0 to 100 scale)” value [8] was 50. The “Plant response rating, Wheat (winter)” value [8, 20] was 60, the “Plant response rating, Wheat (winter)” value [8, 21] was 60 and the “Wild oat plant response rating (0 to 100 scale)” value [9] was 80. The “Plant response rating, Wild oat” value [9, 20] was 70, the “Plant response rating, Wild oat” value [9, 21] was 80 and the “Barley (winter) plant response rating (0 to 100 scale)” value [10] was 70. For the same compound, the “Plant response rating, Barley (winter)” value [10, 20] was 65 and the “Plant response rating, Barley (winter)” value [10, 21] was 80.

For `CC(C)N(C(=O)n1oc(=O)n([C@@H](C)c2ccccc2)c1=O)c1ccc(Cl)cc1` [Compound 174], the “Morningglory plant response rating” value [1, 22] was 5, the “Morningglory plant response rating” value [1, 11] was 0 and the “Morningglory plant response rating (0 to 10 scale)” value [1, 23] was 0. The “Morningglory plant response rating” value [1, 24] was 0, the “Morningglory plant response rating” value [1, 25] was 0 and the “Morningglory plant response rating” value [1, 26] was 3. The “Plant response rating, Morningglory” value [1, 27] was 5, the “Morningglory plant response rating” value [1, 28] was 5 and the “Redroot pigweed plant response rating” value [2, 22] was 4. The “Redroot pigweed plant response rating” value [2, 11] was 0, the “Redroot pigweed plant response rating (0 to 10 scale)” value [2, 23] was 6 and the “Redroot pigweed plant response rating” value [2, 24] was 8. The “Redroot pigweed plant response rating” value [2, 25] was 9, the “Redroot pigweed plant response rating” value [2, 26] was 0 and the “Plant response rating, Redroot pigweed” value [2, 27] was 6. The “Redroot pigweed plant response rating” value [2, 28] was 6, the “Wild oats plant response rating” value [3, 11] was 0 and the “Wild oats plant response rating (0 to 10 scale)” value [3, 23] was 0. The “Wild oats plant response rating” value [3, 24] was 0, the “Wild oats plant response rating” value [3, 25] was 0 and the “Plant response rating, Wild oats” value [3, 27] was 0. For the same compound, the “Wild oats plant response rating” value [3, 28] was 0, the “Plant response rating, Wheat (winter)” value ([4]; Rate 1000 g/ha, 0 to 100 scale, 0 is no effect and 100 is complete control) was 50 and the “Plant response rating, Wheat (winter)” value [4, 19] was 40. The “Blackgrass plant response rating (0 to 100 scale)” value [5] was 30, the “Plant response rating, Blackgrass” value [5, 20] was 50 and the “Plant response rating, Blackgrass” value [5, 18] was 55. The “Green foxtail plant response rating (0 to 100 scale)” value [6] was 30, the “Plant response rating, Green foxtail” value [6, 20] was 50 and the “Plant response rating, Green foxtail” value [6, 18] was 85. For the same compound, the “I. Ryegrass plant response rating (0 to 100 scale)” value [7] was 0, the “Plant response rating, I. Ryegrass” value [7, 20] was 20 and the “Plant response rating, I. Ryegrass” value [7, 18] was 40. The “Wheat (winter) plant response rating (0 to 100 scale)” value [8] was 60, the “Plant response rating, Wheat (winter)” value [8, 20] was 50 and the “Plant response rating, Wheat (winter)” value [8, 18] was 40. For the same compound, the “Wild oat plant response rating (0 to 100 scale)” value [9] was 50, the “Plant response rating, Wild oat” value [9, 20] was 40 and the “Plant response rating, Wild oat” value [9, 18] was 50. For the same compound, the “Barley (winter) plant response rating (0 to 100 scale)” value [10] was 0, the “Plant response rating, Barley (winter)” value [10, 20] was 0 and the “Plant response rating, Barley (winter)” value [10, 18] was 10.

Source: patent US6737383B1, “Herbicidal oxadiazolidines” (priority 1999, dated 2004)
